System: 941728-121-R-J1-PDC complex spheroid viability
Test: Anticancer human tumor 941728-121-R-J1-PDC patient-derived lung adenocarcinoma cell line growth inhibition [RAS]
Settings: for IC50: curve of first compound; for viability, T/C: stronger effect = lower value
Description: RAS pathway inhibitors in Combinations in Complex Spheroids
A high-throughput screen of multi-cell type tumor spheroids was designed to identify active combinations of RAS pathway inhibitors and targeted small molecules. Complex spheroids include a stromal component modeled by human endothelial cells (HUVEC) and fibroblasts modeled by human mesenchymal stem cells (MSCs). The concentration ranges selected for each drug and investigational agent were based upon clinically achievable concentrations if the clinical Cmax of the agent was known.
Compounds. The drugs and investigational agents: abemaciclib (NSC768073), cobimetinib (NSC768068), divarasib (GDC6063, NSC841802), docetaxel (NSC628503), GDC-1971 (RLY-1971, NSC841576), gemcitabine (NSC613327), inavolisib (NSC800729), ipatasertib (NSC767898), KB-0742 (NSC834161), MRTX-1133 (NSC836407), osimertinib (NSC779217), RMC-4630 (NSC839698), RMC-6236 (NSC851965), RMC-6291 (NSC852671), Ro-3306 (NSC812927), sapanisertib (NSC764658), SN-38 (NSC673596), staurosporine (NSC755774), SY5609 (NSC837396), and tovorafenib (DAY101, NSC766906), were obtained from the National Cancer Institute (NCI) Developmental Therapeutics Program Chemical Repository. The FDA-approved anticancer drug set is available from the NCI Developmental Therapeutics Program. […] The stock solutions were prepared in dimethyl sulfoxide (DMSO, Sigma-Aldrich, St. Louis, MO, cat. D2650) at 800-fold the tested concentration and stored at -70 degrees C prior to their use. All drugs and investigational agents were tested over a range starting from a high concentration at or near the clinical Cmax and decreasing in half-log increments. If the clinical Cmax for an agent had not been determined, the highest concentration tested was 10 microM.
Cell Culture. All cells were maintained in an incubator at 37 degrees C and 5% CO2 with 95% humidity. The PDC lines were cultured according to standard operating procedures established by the NCI PDMR. All PDCs were thawed and cultured in Matrigel-coated flasks prepared with a working solution of 1X Ham's F-12 nutrient mix, without supplementation (Invitrogen, Waltham, MA, cat. 11765054), 100 U/mL penicillin-streptomycin (Invitrogen, cat. 15140122), and 2.5% Matrigel (Corning Inc., Corning, NY, cat. 354248) for the first three passages. The 362531-283-R-J2-PDC and 782815-120-R-J1-PDC lines were cultured in 6C/Colon 1B media, which includes advanced DMEM/F-12 (Thermo Fisher Scientific, cat. 12634028), 10 mM HEPES (Thermo Fisher Scientific, cat. 15630080), 1X GlutaMAX supplement (Thermo Fisher Scientific, cat. 35050061), 0.1 mg/mL primocin (InvivoGen, San Diego, CA, cat. ant-pm-2), 10% defined fetal bovine serum, heat inactivated (HyClone Laboratories Inc., Logan, UT, cat. SH30070.03HI), 50% L-WRN conditioned media (ATCC, cat. CRL-3276), 1.25 mM N-Acetyl-L-cysteine (Sigma-Aldrich, cat. A9165), 10 mM nicotinamide (Sigma-Aldrich, cat. N0636), 1X B-27 supplement (Thermo Fisher Scientific, cat. 17504044), 1X N-2 supplement (Thermo Fisher Scientific, cat. 17502048), 50 ng/mL human EGF (Thermo Fisher Scientific, cat. PHG0311), and 10 microM Y-27632 dihydrochloride (Tocris Bioscience, cat. 1254). The K12877-001-R-J1-PDC line was cultured in 6I media, which includes all 6C/Colon 1B media plus 10 ng/mL human FGF-10 (PeproTech, cat. 100-26), 1 ng/mL human FGF-2 (PeproTech, cat. 100-18B), 1 µM prostaglandin E2 (Tocris Bioscience, cat. 2296), […] hydrocortisone (Sigma-Aldrich, cat. H4001), and […] bovine insulin (Sigma-Aldrich, cat. I6634). The K86415-001-R-J1-PDC line was cultured in 6D media, which includes all 6C/Colon 1B media components minus the L-WRN conditioned media. The 485176-168-R4-J1-PDC was cultured in PANC media, which includes all 6C/Colon 1B media plus 100 ng/mL human FGF-10 (PeproTech, cat. 100-26), 500 nM SB-431542 (Selleckchem, cat. S1067), and 10 nM gastrin (Tocris Bioscience, cat. 3006). […]
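Note: spheroids exposed to compounds for 7 days before readout.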
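Throughout, for viability, T/C: 100% = DMSO vehicle control viability.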

C[C@@H](NC(=O)c1ncnc(N)c1Cl)c1ncc(C(=O)Nc2cc(C(F)(F)F)c(Cl)cn2)s1 + C#Cc1c(F)ccc2cc(O)cc(-c3ncc4c(N5CC6CCC(C5)N6)nc(OCC56CCCN5CC(F)C6)nc4c3F)c12
IC50 (second compound 0.0316 µM): 7 µM
IC50 (second compound 0.1 µM): 7.1 µM
IC50 (second compound 0.316 µM): 2.68 µM
IC50 (second compound 1 µM): < 0.0316 µM
IC50 (second compound 3.16 µM): < 0.0316 µM
IC50 (second compound 10 µM): < 0.0316 µM
viability, T/C (second compound 0.0316 µM, first compound 0.0316 µM): 107%
viability, T/C (second compound 0.0316 µM, first compound 0.1 µM): 102%
viability, T/C (second compound 0.0316 µM, first compound 0.316 µM): 108%
viability, T/C (second compound 0.0316 µM, first compound 1 µM): 94.4%
viability, T/C (second compound 0.0316 µM, first compound 3.16 µM): 72.5%
viability, T/C (second compound 0.0316 µM, first compound 10 µM): 40%
viability, T/C (second compound 0.1 µM, first compound 0.0316 µM): 102%
viability, T/C (second compound 0.1 µM, first compound 0.1 µM): 109%
viability, T/C (second compound 0.1 µM, first compound 0.316 µM): 103%
viability, T/C (second compound 0.1 µM, first compound 1 µM): 102%
viability, T/C (second compound 0.1 µM, first compound 3.16 µM): 76.3%
viability, T/C (second compound 0.1 µM, first compound 10 µM): 38.9%
viability, T/C (second compound 0.316 µM, first compound 0.0316 µM): 69.7%
viability, T/C (second compound 0.316 µM, first compound 0.1 µM): 79.6%
viability, T/C (second compound 0.316 µM, first compound 0.316 µM): 69.6%
viability, T/C (second compound 0.316 µM, first compound 1 µM): 60.2%
viability, T/C (second compound 0.316 µM, first compound 3.16 µM): 49.2%
viability, T/C (second compound 0.316 µM, first compound 10 µM): 37.1%
viability, T/C (second compound 1 µM, first compound 0.0316 µM): 46.2%
viability, T/C (second compound 1 µM, first compound 0.1 µM): 48.5%
viability, T/C (second compound 1 µM, first compound 0.316 µM): 45.3%
viability, T/C (second compound 1 µM, first compound 1 µM): 39.4%
viability, T/C (second compound 1 µM, first compound 3.16 µM): 38.4%
viability, T/C (second compound 1 µM, first compound 10 µM): 29.4%
viability, T/C (second compound 3.16 µM, first compound 0.0316 µM): 30%
viability, T/C (second compound 3.16 µM, first compound 0.1 µM): 32.5%
viability, T/C (second compound 3.16 µM, first compound 0.316 µM): 28.2%
viability, T/C (second compound 3.16 µM, first compound 1 µM): 26.5%
viability, T/C (second compound 3.16 µM, first compound 3.16 µM): 30.2%
viability, T/C (second compound 3.16 µM, first compound 10 µM): 28.1%
viability, T/C (second compound 10 µM, first compound 0.0316 µM): 24.4%
viability, T/C (second compound 10 µM, first compound 0.1 µM): 25.2%
viability, T/C (second compound 10 µM, first compound 0.316 µM): 25.3%
viability, T/C (second compound 10 µM, first compound 1 µM): 26.2%
viability, T/C (second compound 10 µM, first compound 3.16 µM): 25%
viability, T/C (second compound 10 µM, first compound 10 µM): 21.7%

— PubChem BioAssay AID2060896 (Molecular Pharmacology Branch, DTP, NCI, 2025)
